# Experimental data as given in patent publication US11453703B2, “Heterotandem bicyclic peptide complexes” (BicycleTX Limited, priority 2018, dated 2022).
# Target: CD137 (Homo sapiens, UniProt Q07011)
# Assay: CD137 reporter assay, co-culture with Nectin-4 tumour cells;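 further: jurkat reporter cells co-cultured with tumour cells and test article for 6 h, luminescence signal relative to Jurkat plus tumour cells lacking test article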
# Assay type: cell-based
# Parameters: host or cells: Jurkat reporter cells
# Conditions: for fold induction / Fold Induction over Background: tumour target Nectin4, co-culture with H1376, 6 h; for fold induction: read-out: Fold Induction over Background
# Chain of CD137 (Q07011 24-255): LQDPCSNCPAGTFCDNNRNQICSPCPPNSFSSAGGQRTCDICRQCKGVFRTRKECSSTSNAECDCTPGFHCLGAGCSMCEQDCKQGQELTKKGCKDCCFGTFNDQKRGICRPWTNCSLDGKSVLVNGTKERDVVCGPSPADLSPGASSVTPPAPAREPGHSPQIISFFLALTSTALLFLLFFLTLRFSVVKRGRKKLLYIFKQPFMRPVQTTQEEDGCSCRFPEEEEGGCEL
SMILES,fold induction,EC50,Fold Induction over Background
CCCC[C@@H]1NC(=O)[C@H](Cc2ccc(O)cc2)NC(=O)[C@@H]2CCCN2C(=O)[C@H](CC(=O)O)NC(=O)[C@H](C)NC(=O)[C@H](Cc2ccccc2)NC(=O)[C@@H]2CSCCC(=O)N3CN(CN(C3)C(=O)CCSC[C@@H](C(=O)N[C@@H](CNC(=O)CCc3cn(CCOCCOCCOCCOCCOCCOCCOCCOCCOCCOCCNC(=O)N[C@H]4CSCCC(=O)N5CN6CN(C5)C(=O)CCSC[C@H](NC(=O)[C@@H](CC(=O)O)NC(=O)[C@H](Cc5cccc7ccccc57)NC(=O)[C@@H]5CCCN5C4=O)C(=O)N[C@@H](CCSC)C(=O)N[C@@H](CCCCNC(=N)N)C(=O)N[C@@H](CC(=O)O)C(=O)N[C@@H](Cc4c[nH]c5ccccc45)C(=O)N[C@@H](CO)C(=O)N[C@@H]([C@@H](C)O)C(=O)N4CCC[C@H]4C(=O)N4C[C@H](O)C[C@H]4C(=O)N[C@@H](Cc4c[nH]c5ccccc45)C(=O)N[C@H](C(N)=O)CSCCC6=O)nn3)C(N)=O)NC1=O)C(=O)CCSC[C@H](NC(=O)[C@H](C)NC(C)=O)C(=O)N[C@@H]([C@@H](C)CC)C(=O)N[C@@H](CCC(=O)O)C(=O)N[C@@H](CCC(=O)O)C(=O)NCC(=O)N[C@@H](CCC(N)=O)C(=O)N[C@@H](Cc1ccc(O)cc1)C(=O)N2 [BCY9399],13,–,–
CCCC[C@@H]1NC(=O)[C@H](Cc2ccc(O)cc2)NC(=O)[C@@H]2CCCN2C(=O)[C@H](CC(=O)O)NC(=O)[C@H](C)NC(=O)[C@H](Cc2ccccc2)NC(=O)[C@@H]2CSCCC(=O)N3CN(CN(C3)C(=O)CCSC[C@@H](C(=O)N[C@@H](CNC(=O)CCc3cn(CCOCCOCCOCCOCCOCCOCCOCCOCCOCCOCCOCCOCCOCCOCCOCCOCCOCCOCCOCCOCCOCCOCCOCCNC(=O)N[C@H]4CSCCC(=O)N5CN6CN(C5)C(=O)CCSC[C@H](NC(=O)[C@@H](CC(=O)O)NC(=O)[C@H](Cc5cccc7ccccc57)NC(=O)[C@@H]5CCCN5C4=O)C(=O)N[C@@H](CCSC)C(=O)N[C@@H](CCCCNC(=N)N)C(=O)N[C@@H](CC(=O)O)C(=O)N[C@@H](Cc4c[nH]c5ccccc45)C(=O)N[C@@H](CO)C(=O)N[C@@H]([C@@H](C)O)C(=O)N4CCC[C@H]4C(=O)N4C[C@H](O)C[C@H]4C(=O)N[C@@H](Cc4c[nH]c5ccccc45)C(=O)N[C@H](C(N)=O)CSCCC6=O)nn3)C(N)=O)NC1=O)C(=O)CCSC[C@H](NC(=O)[C@H](C)NC(C)=O)C(=O)N[C@@H]([C@@H](C)CC)C(=O)N[C@@H](CCC(=O)O)C(=O)N[C@@H](CCC(=O)O)C(=O)NCC(=O)N[C@@H](CCC(N)=O)C(=O)N[C@@H](Cc1ccc(O)cc1)C(=O)N2 [BCY9400],13,–,–
CCCC[C@@H]1NC(=O)[C@H](Cc2ccc(O)cc2)NC(=O)[C@@H]2CCCN2C(=O)[C@H](CC(=O)O)NC(=O)[C@H](C)NC(=O)[C@H](Cc2ccccc2)NC(=O)[C@@H]2CSCCC(=O)N3CN(CN(C3)C(=O)CCSC[C@@H](C(=O)N[C@@H](CNC(=O)CCc3cn(CCCNC(=O)CN(C)C(=O)CN(C)C(=O)CN(C)C(=O)CN(C)C(=O)CN(C)C(=O)CCOCCOCCOCCOCCOCCOCCOCCOCCOCCOCCOCCOCCOCCOCCOCCNC(=O)N[C@H]4CSCCC(=O)N5CN6CN(C5)C(=O)CCSC[C@H](NC(=O)[C@@H](CC(=O)O)NC(=O)[C@H](Cc5cccc7ccccc57)NC(=O)[C@@H]5CCCN5C4=O)C(=O)N[C@@H](CCSC)C(=O)N[C@@H](CCCCNC(=N)N)C(=O)N[C@@H](CC(=O)O)C(=O)N[C@@H](Cc4c[nH]c5ccccc45)C(=O)N[C@@H](CO)C(=O)N[C@@H]([C@@H](C)O)C(=O)N4CCC[C@H]4C(=O)N4C[C@H](O)C[C@H]4C(=O)N[C@@H](Cc4c[nH]c5ccccc45)C(=O)N[C@H](C(N)=O)CSCCC6=O)nn3)C(N)=O)NC1=O)C(=O)CCSC[C@H](NC(=O)[C@H](C)NC(C)=O)C(=O)N[C@@H]([C@@H](C)CC)C(=O)N[C@@H](CCC(=O)O)C(=O)N[C@@H](CCC(=O)O)C(=O)NCC(=O)N[C@@H](CCC(N)=O)C(=O)N[C@@H](Cc1ccc(O)cc1)C(=O)N2 [BCY9407],–,3.4 nM,29 fold
CCCC[C@@H]1NC(=O)[C@H](Cc2ccc(O)cc2)NC(=O)[C@@H]2CCCN2C(=O)[C@H](CC(=O)O)NC(=O)[C@H](C)NC(=O)[C@H](Cc2ccccc2)NC(=O)[C@@H]2CSCCC(=O)N3CN(CN(C3)C(=O)CCSC[C@@H](C(=O)N[C@@H](CNC(=O)CCOCCOCCOCCOCCOCCOCCOCCOCCOCCOCCOCCOCCOCCOCCOCCOCCOCCOCCOCCOCCOCCOCCOCCOCCOCCC(=O)N[C@H]3CSCCC(=O)N4CN5CN(C4)C(=O)CCSC[C@H](NC(=O)[C@@H](CC(=O)O)NC(=O)[C@H](Cc4cccc6ccccc46)NC(=O)[C@@H]4CCCN4C3=O)C(=O)N[C@@H](CCSC)C(=O)N[C@@H](CCCCNC(=N)N)C(=O)N[C@@H](CC(=O)O)C(=O)N[C@@H](Cc3c[nH]c4ccccc34)C(=O)N[C@@H](CO)C(=O)N[C@@H]([C@@H](C)O)C(=O)N3CCC[C@H]3C(=O)N3C[C@H](O)C[C@H]3C(=O)N[C@@H](Cc3c[nH]c4ccccc34)C(=O)N[C@H](C(N)=O)CSCCC5=O)C(N)=O)NC1=O)C(=O)CCSC[C@H](NC(=O)[C@H](C)NC(C)=O)C(=O)N[C@@H]([C@@H](C)CC)C(=O)N[C@@H](CCC(=O)O)C(=O)N[C@@H](CCC(=O)O)C(=O)NCC(=O)N[C@@H](CCC(N)=O)C(=O)N[C@@H](Cc1ccc(O)cc1)C(=O)N2 [BCY9759],–,–,15 fold
CCCC[C@@H]1NC(=O)[C@H](Cc2ccc(O)cc2)NC(=O)[C@@H]2CCCN2C(=O)[C@H](CC(=O)O)NC(=O)[C@H](C)NC(=O)[C@H](Cc2ccccc2)NC(=O)[C@@H]2CSCCC(=O)N3CN(CN(C3)C(=O)CCSC[C@@H](C(=O)N[C@@H](CNC(=O)CCc3cn(CCOCCOCCOCCOCCOCCC(=O)N[C@H]4CSCCC(=O)N5CN6CN(C5)C(=O)CCSC[C@H](NC(=O)[C@@H](CC(=O)O)NC(=O)[C@H](Cc5cccc7ccccc57)NC(=O)[C@@H]5CCCN5C4=O)C(=O)N[C@@H](CCSC)C(=O)N[C@@H](CCCCNC(=N)N)C(=O)N[C@@H](CC(=O)O)C(=O)N[C@@H](Cc4c[nH]c5ccccc45)C(=O)N[C@@H](CO)C(=O)N[C@@H]([C@@H](C)O)C(=O)N4CCC[C@H]4C(=O)N4C[C@H](O)C[C@H]4C(=O)N[C@@H](Cc4c[nH]c5ccccc45)C(=O)N[C@H](C(N)=O)CSCCC6=O)nn3)C(N)=O)NC1=O)C(=O)CCSC[C@H](NC(C)=O)C(=O)N[C@@H](CC(C)(C)C)C(=O)N1CCC[C@H]1C(=O)N[C@@H](CCC(=O)O)C(=O)N[C@H](C)C(=O)N1CCC[C@H]1C(=O)N[C@@H](Cc1ccc(O)cc1)C(=O)N2 [BCY10573],–,0.9 nM,55 fold
CCCC[C@@H]1NC(=O)[C@H](Cc2ccc(O)cc2)NC(=O)[C@@H]2CCCN2C(=O)[C@H](CC(=O)O)NC(=O)[C@H](C)NC(=O)[C@H](Cc2ccccc2)NC(=O)[C@@H]2CSCCC(=O)N3CN(CN(C3)C(=O)CCSC[C@@H](C(=O)N[C@@H](CNC(=O)Cn3cc(CCC(=O)NCCC(=O)N(C)CC(=O)N(C)CC(=O)N(C)CC(=O)N(C)CC(=O)N(C)CC(=O)N(C)CC(=O)N(C)CC(=O)N(C)CC(=O)N(C)CC(=O)N(C)CC(=O)N[C@H]4CSCCC(=O)N5CN6CN(C5)C(=O)CCSC[C@H](NC(=O)[C@@H](CC(=O)O)NC(=O)[C@H](Cc5cccc7ccccc57)NC(=O)[C@@H]5CCCN5C4=O)C(=O)N[C@@H](CCSC)C(=O)N[C@@H](CCCCNC(=N)N)C(=O)N[C@@H](CC(=O)O)C(=O)N[C@@H](Cc4c[nH]c5ccccc45)C(=O)N[C@@H](CO)C(=O)N[C@@H]([C@@H](C)O)C(=O)N4CCC[C@H]4C(=O)N4C[C@H](O)C[C@H]4C(=O)N[C@@H](Cc4c[nH]c5ccccc45)C(=O)N[C@H](C(N)=O)CSCCC6=O)nn3)C(N)=O)NC1=O)C(=O)CCSC[C@H](NC(C)=O)C(=O)N[C@@H](CC(C)(C)C)C(=O)N1CCC[C@H]1C(=O)N[C@@H](CCC(=O)O)C(=O)N[C@H](C)C(=O)N1CCC[C@H]1C(=O)N[C@@H](Cc1ccc(O)cc1)C(=O)N2 [BCY10578],–,–,58 fold
CCCC[C@@H]1NC(=O)[C@H](Cc2ccc(O)cc2)NC(=O)[C@@H]2CCCN2C(=O)[C@H](CC(=O)O)NC(=O)[C@H](C)NC(=O)[C@H](Cc2ccccc2)NC(=O)[C@@H]2CSCCC(=O)N3CN(CN(C3)C(=O)CCSC[C@@H](C(=O)N[C@@H](CNC(=O)CCc3cn(CCOCCOCCOCCOCCOCCOCCOCCOCCOCCOCCOCCOCCC(=O)NCCC(=O)N(C)CC(=O)N(C)CC(=O)N(C)CC(=O)N(C)CC(=O)N(C)CC(=O)N(C)CC(=O)N(C)CC(=O)N(C)CC(=O)N(C)CC(=O)N(C)CC(=O)NCCCC[C@H]4NC(=O)[C@H](Cc5cccc6ccccc56)NC(=O)[C@@H]5CCCN5C(=O)[C@@H](NC(C)=O)CSCCC(=O)N5CN6CN(C5)C(=O)CCSC[C@H](NC4=O)C(=O)N[C@@H](CCSC)C(=O)N[C@@H](CCCCNC(=N)N)C(=O)N[C@@H](CC(=O)O)C(=O)N[C@@H](Cc4c[nH]c5ccccc45)C(=O)N[C@@H](CO)C(=O)N[C@@H]([C@@H](C)O)C(=O)N4CCC[C@H]4C(=O)N4C[C@H](O)C[C@H]4C(=O)N[C@@H](Cc4c[nH]c5ccccc45)C(=O)N[C@H](C(N)=O)CSCCC6=O)nn3)C(N)=O)NC1=O)C(=O)CCSC[C@H](NC(C)=O)C(=O)N[C@@H](CC(C)(C)C)C(=O)N1CCC[C@H]1C(=O)N[C@@H](CCC(=O)O)C(=O)N[C@H](C)C(=O)N1CCC[C@H]1C(=O)N[C@@H](Cc1ccc(O)cc1)C(=O)N2 [BCY10917],–,–,54 fold
CCCC[C@@H]1NC(=O)[C@H](Cc2ccc(O)cc2)NC(=O)[C@@H]2CCCN2C(=O)[C@H](CC(=O)O)NC(=O)[C@H](C)NC(=O)[C@H](Cc2ccccc2)NC(=O)[C@@H]2CSCCC(=O)N3CN(CN(C3)C(=O)CCSC[C@@H](C(=O)N[C@@H](CNC(=O)CCc3cn(CCOCCOCCOCCOCCOCCC(=O)NCCC(=O)N(C)CC(=O)N(C)CC(=O)N(C)CC(=O)N(C)CC(=O)N(C)CC(=O)N(C)CC(=O)N(C)CC(=O)N(C)CC(=O)N(C)CC(=O)N(C)CC(=O)NCCCC[C@H]4NC(=O)[C@H](Cc5cccc6ccccc56)NC(=O)[C@@H]5CCCN5C(=O)[C@@H](NC(C)=O)CSCCC(=O)N5CN6CN(C5)C(=O)CCSC[C@H](NC4=O)C(=O)N[C@@H](CCSC)C(=O)N[C@@H](CCCCNC(=N)N)C(=O)N[C@@H](CC(=O)O)C(=O)N[C@@H](Cc4c[nH]c5ccccc45)C(=O)N[C@@H](CO)C(=O)N[C@@H]([C@@H](C)O)C(=O)N4CCC[C@H]4C(=O)N4C[C@H](O)C[C@H]4C(=O)N[C@@H](Cc4c[nH]c5ccccc45)C(=O)N[C@H](C(N)=O)CSCCC6=O)nn3)C(N)=O)NC1=O)C(=O)CCSC[C@H](NC(C)=O)C(=O)N[C@@H](CC(C)(C)C)C(=O)N1CCC[C@H]1C(=O)N[C@@H](CCC(=O)O)C(=O)N[C@H](C)C(=O)N1CCC[C@H]1C(=O)N[C@@H](Cc1ccc(O)cc1)C(=O)N2 [BCY11020],–,–,47 fold
